Data published in PMC6625793, “The autophagic membrane tether ATG2A transfers lipids between membranes” (eLife, 2019).

Legend:
Assay type in all cases: binding
ATG2A = biological target: T1, ATG2A (Homo sapiens, UniProt Q2TAZ0); test: lipid extraction from LUVs, Nycodenz flotation, native PAGE fluorescence; settings: 20 mM HEPES pH 7.5, 150 mM NaCl, 1 mM TCEP; ~22 °C; 20% NBD-PE/80% DOPC LUVs; labelled compound
T1 construct: full-length (1938 residues); N-terminal GST cleaved by TEV, C-terminal TwinStrepII tag kept; expressed in Sf9 insect cells
T1 sequence (Q2TAZ0 whole entry): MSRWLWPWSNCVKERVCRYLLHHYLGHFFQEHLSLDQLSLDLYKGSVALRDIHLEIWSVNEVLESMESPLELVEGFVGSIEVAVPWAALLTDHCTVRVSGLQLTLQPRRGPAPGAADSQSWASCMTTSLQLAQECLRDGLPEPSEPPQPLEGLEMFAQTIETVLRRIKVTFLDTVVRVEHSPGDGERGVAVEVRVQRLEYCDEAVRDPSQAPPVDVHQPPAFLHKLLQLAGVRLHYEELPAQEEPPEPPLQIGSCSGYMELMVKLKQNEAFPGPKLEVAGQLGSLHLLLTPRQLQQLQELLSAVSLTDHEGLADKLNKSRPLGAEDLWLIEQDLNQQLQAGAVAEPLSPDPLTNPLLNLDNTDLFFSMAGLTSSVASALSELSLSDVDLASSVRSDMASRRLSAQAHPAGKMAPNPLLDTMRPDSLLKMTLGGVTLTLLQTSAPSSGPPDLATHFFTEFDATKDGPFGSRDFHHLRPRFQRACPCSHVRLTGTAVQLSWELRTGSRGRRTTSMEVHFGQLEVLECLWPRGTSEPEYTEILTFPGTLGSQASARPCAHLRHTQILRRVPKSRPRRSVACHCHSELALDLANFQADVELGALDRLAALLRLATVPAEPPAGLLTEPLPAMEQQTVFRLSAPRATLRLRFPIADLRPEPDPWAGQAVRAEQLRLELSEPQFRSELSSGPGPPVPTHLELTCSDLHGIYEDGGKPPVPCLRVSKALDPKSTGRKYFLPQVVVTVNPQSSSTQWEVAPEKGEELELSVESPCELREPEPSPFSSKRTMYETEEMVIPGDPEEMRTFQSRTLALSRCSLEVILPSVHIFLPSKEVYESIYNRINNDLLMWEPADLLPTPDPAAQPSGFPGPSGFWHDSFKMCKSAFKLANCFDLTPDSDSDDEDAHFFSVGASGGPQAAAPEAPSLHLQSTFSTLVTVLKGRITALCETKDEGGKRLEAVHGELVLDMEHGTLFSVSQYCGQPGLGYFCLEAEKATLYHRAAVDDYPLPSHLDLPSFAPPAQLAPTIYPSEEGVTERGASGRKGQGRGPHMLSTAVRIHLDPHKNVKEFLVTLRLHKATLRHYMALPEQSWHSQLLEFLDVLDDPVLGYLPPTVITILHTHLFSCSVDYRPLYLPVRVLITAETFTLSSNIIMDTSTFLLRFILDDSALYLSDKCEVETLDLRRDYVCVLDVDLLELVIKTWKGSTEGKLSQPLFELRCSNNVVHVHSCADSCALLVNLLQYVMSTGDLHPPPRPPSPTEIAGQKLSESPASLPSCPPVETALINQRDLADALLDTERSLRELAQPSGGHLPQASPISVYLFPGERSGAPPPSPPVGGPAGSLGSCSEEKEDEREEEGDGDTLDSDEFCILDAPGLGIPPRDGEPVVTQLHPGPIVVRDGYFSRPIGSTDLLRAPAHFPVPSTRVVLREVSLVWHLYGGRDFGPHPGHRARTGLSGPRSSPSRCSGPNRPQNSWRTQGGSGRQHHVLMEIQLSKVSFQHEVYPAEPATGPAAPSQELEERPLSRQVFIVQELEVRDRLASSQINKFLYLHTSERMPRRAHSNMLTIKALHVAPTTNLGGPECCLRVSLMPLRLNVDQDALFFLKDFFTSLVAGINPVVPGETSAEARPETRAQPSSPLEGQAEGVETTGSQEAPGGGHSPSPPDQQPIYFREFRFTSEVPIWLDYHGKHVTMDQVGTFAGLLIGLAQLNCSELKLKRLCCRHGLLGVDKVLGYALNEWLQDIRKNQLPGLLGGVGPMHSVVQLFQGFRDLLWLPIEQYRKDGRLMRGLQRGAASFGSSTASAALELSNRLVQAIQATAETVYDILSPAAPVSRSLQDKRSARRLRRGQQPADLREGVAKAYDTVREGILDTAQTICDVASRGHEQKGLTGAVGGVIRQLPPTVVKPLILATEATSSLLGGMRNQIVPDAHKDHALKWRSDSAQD

WIPI1 = biological target: T2, WIPI1 (Homo sapiens, UniProt Q5MNZ9); test: liposome flotation, western blot; settings: 20 mM HEPES pH 7.5, 150 mM NaCl, 1 mM TCEP; LUVs with 5% PI3P versus without PI3P
T2 construct: residues 1-446; N-terminal 6xHis tag kept in flotation assays; expressed in Sf9 insect cells
T2 sequence (Q5MNZ9 1-446): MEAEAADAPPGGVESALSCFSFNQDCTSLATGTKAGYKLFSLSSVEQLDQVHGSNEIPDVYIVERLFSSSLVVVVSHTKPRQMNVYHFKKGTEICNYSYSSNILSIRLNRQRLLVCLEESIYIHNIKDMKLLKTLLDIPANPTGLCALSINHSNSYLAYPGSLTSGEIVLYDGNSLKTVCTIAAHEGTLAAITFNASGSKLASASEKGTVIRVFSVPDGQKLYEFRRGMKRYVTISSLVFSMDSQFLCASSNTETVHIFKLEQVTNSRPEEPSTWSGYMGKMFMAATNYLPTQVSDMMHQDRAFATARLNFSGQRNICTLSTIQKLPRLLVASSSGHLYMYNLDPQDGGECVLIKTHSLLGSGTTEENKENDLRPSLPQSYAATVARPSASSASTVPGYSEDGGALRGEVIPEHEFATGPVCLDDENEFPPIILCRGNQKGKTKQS

WIPI4 = biological target: T3, WIPI4 (Homo sapiens, UniProt Q9Y484); test: liposome flotation, western blot; settings: 20 mM HEPES pH 7.5, 150 mM NaCl, 1 mM TCEP; LUVs with 5% PI3P versus without PI3P
T3 construct: gene WDR45; N-terminal 10xHis tag kept in flotation assays; expressed in Sf9 insect cells
T3 sequence (Q9Y484 1-360): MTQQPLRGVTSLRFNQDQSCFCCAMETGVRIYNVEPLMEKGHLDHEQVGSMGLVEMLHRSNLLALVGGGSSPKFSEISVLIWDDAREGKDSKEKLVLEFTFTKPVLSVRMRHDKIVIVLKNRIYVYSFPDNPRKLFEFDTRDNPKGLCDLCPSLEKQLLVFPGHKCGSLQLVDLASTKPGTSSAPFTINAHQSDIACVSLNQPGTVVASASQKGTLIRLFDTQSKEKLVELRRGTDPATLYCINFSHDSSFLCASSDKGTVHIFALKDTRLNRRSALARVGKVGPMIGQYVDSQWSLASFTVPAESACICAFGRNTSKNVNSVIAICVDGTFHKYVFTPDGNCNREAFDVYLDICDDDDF

Row | Compound | lipid extraction from LUVs, Nycodenz flotation, native PAGE fluorescence (ATG2A) | liposome flotation, western blot (WIPI1) | liposome flotation, western blot (WIPI4)
1 | CCCCCCCC/C=C\CCCCCCCC(=O)OC[C@H](COP(=O)(O)OCCNc1ccc([N+](=O)[O-])c2nonc12)OC(=O)CCCCCCC/C=C\CCCCCCCC [NBD-PE, 1,2-dioleoyl-sn-glycero-3-phosphoethanolamine-N-(7-nitro-2–1,3-benzoxadiazol-4-yl)] | ATG2A can extract NBD-PE from membranes and dissociate from the membrane with those lipids attached |  | 
2 | CCCCCCCC/C=C\CCCCCCCC(=O)OC[C@H](COP(=O)(O)O[C@@H]1[C@H](O)[C@H](OP(=O)(O)O)[C@@H](O)[C@H](O)[C@H]1O)OC(=O)CCCCCCC/C=C\CCCCCCCC [PI3P] |  | both WIPIs bind to membranes in a PI3P-dependent manner | both WIPIs bind to membranes in a PI3P-dependent manner
